This is an account of results in publication PMC11123841, “Discovery and Synthesis of Hydroxy-L-Proline Blockers of the Neutral Amino Acid Transporters SLC1A4 (ASCT1) and SLC1A5 (ASCT2)” (Molecules, 2024).

Holding throughout (format): cell-based
Assay [1] has as its target T1, SLC1A4 (Homo sapiens, UniProt P43007).
T1 construct: expressed in transfected cells; host or cells: Xenopus laevis oocytes (cRNA injection)
T1 sequence (P43007 1-532): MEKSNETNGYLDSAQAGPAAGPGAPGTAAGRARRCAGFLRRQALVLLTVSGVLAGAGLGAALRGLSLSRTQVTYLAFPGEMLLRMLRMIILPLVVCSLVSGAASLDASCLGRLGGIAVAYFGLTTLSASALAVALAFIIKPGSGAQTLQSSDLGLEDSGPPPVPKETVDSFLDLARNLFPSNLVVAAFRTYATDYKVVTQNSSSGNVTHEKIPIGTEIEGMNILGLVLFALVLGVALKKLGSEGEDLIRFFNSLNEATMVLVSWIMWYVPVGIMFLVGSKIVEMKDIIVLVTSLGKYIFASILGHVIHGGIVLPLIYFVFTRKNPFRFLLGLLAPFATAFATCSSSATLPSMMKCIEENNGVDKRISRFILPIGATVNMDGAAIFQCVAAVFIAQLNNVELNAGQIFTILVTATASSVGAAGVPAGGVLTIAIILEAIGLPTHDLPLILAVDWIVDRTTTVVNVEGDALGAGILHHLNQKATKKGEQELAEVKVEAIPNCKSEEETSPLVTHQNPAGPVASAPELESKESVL
Put plainly: [3H]L-alanine uptake block in oocytes. As for the experimental part:
Uptake was halted by washing 3 times with 4 °C ND96 buffer. Oocytes were then lysed in 0.1% Triton X-100, and radioactivity was counted via liquid scintillation. Dose response curves were generated by fitting fractional inhibition (I) to the expression I = Imax × [inhibitor]/([inhibitor] + IC50).

For assay [2], the target named is T1, SLC1A4. Put plainly: Schild analysis of L-alanine dose responses. As for the experimental part: We further characterized the highest affinity blocker discovered from our AHPC series, biphenyl-O-hydroxy-proline (BPOHP, 14e). […] A respective right shift in the substrate dose response was apparent with increasing concentrations of BPOHP (Figure 4C).
Two-electrode voltage clamp (TEVC) transporter currents were recorded with a GeneClamp 500 amplifier and Digidata 1320A analog–digital interface (Molecular Devices, San Jose, CA, USA). Electrodes (0.2–1.0 MΩ) were filled with 3M KCl and the recording chamber was grounded with an agar bridge. Data were acquired with Axograph (v1.7.6) and LabChart (v7) and analyzed with Kaleidagraph software (v4.1) (Synergy, Reading, PA, USA). Uncoupled anion currents associated with the transport of substrate and block of SLC1A4 or SLC1A5 mediated leak conductance were recorded in the presence of Ringer with 50% substitution of NaCl by NaSCN to amplify the non-transported anion conductance.
Figure 4 BPOHP 14e characterization as a competitive, non-transportable inhibitor. […] (D) A Schild plot showing a linear relationship between [L-ala] dose ratio and four different concentrations of BPOHP, consistent with competitive inhibition.

Assay [3] concerns the target T1, SLC1A4. Put plainly: [3H]D-serine uptake in oocytes. The note with it: [3H]D-serine 100 nM, 10 µM BPOHP. The method, then:
page 6: vi Figure SM-3A. […] with no effect on SL[…] neutral amino acid transporters SLC38A1(ATA1), SLC38A2 (ATA2), and SLC38A4 (ATA3). SM-3B. […] by application of 10μM BPOHP. Figure SM-4. Tosic acid approach to compound 12c. (i) Tosylic acid 0.1M in THF 60◦C. (ii) […] S.Figure 3 A. […] SLC38A1(ATA1), SLC38A2 (ATA2), and SLC38A4 (ATA3). B. […] SLC7A10+SLC3A2 (asc1+4F2). […]

Assay [4] has as its target T2, SLC3A2 (4f2) injected alone (Homo sapiens, UniProt P08195).
T2 construct: expressed in transfected cells; host or cells: Xenopus laevis oocytes (cRNA injection)
T2 sequence (P08195 1-529): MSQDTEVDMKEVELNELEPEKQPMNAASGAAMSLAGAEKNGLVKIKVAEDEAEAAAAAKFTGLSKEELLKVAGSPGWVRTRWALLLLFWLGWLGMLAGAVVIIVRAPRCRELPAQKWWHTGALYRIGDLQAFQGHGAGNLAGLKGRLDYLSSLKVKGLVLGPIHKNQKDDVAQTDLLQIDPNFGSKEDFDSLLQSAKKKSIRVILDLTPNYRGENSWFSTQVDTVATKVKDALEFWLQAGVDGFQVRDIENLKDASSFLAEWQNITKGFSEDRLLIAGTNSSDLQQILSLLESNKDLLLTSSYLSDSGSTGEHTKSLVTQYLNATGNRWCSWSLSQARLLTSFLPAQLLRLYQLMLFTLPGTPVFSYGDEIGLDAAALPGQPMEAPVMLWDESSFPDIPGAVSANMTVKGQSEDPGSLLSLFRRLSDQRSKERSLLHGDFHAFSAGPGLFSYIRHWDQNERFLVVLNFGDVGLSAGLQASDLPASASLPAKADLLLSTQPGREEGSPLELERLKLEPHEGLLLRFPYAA
Put plainly: [3H]D-serine uptake in oocytes. The note with it: 10 µM BPOHP. The method, then: Figure SM-3A. Representative traces showing 100µM L-Ala currents and co-application of 3µM BPOHP (black bar) with no effect on SLC38A neutral amino acid transporters SLC38A1(ATA1), SLC38A2 (ATA2), and SLC38A4 (ATA3). SM-3B. [3H]D-serine uptake (100nM) in SLC1A4 is blocked by BPOHP (10µM), however, [ 3H]D-serine uptake by co -expressed SLC7A10+SLC3A2 (asc1+4F2) nor SLC3A2 (4f2) expressed (injected) alone was blocked by application of 10µM BPOHP.
Figure SM-4. Tosic acid approach to compound 12c. (i) Tosylic acid 0.1M in THF 60◦C. (ii) Phenol and NaH in DCM, 40◦C under argon balloon (iii) 10% Pd/C (10% w/eq.), H2, MeOH, H2O, […]
S.Figure 3 A. Representative traces showing 100uM L-Ala currents and co-application of 3uM BPOHP (black bar) with no effect on SLC38A neutral amino acid transporters SLC38A1(ATA1), SLC38A2 (ATA2), and SLC38A4 (ATA3). B. [3H]D-serine uptake (100nM) in SLC1A4 is blocked by BPOHP (10uM), but not the H3D-serine uptake by […]

Take `O=C(O)[C@H]1NC[C@@H](OCc2ccc(-c3ccccc3)cc2)[C@@H]1O` [14e]: 128 nM corresponded to half-maximal inhibition on SLC1A4 [1] (IC50). For the same compound, at SLC1A4 [2], the Kb came to 120 nM. The “effect on [3H]D-serine uptake” value on SLC1A4 [3] is “blocked”; in assay [4], “no effect”.

Usually IC50 stands for the concentration that gives 50% inhibition.
